Data on 14 molecules can be found in ChEMBL document CHEMBL3045011, “Synthesis and Herbicidal Activities of 2-(5-Isoxazolyloxy)-acetamide Derivatives” (J Pestic Sci, 1998).

Data set [1] deals with Amaranthus viridis. In words: Herbicidal activity against Amaranthus viridis assessed as seedling death under green house at 0.5 kg/ha at 25 degC measured after 4 weeks. It is filed as functional, organism-based.
For data set [2], the system named is Echinochloa crus-galli. In words: Herbicidal activity against Echinochloa crus-galli (barnyard grass) assessed as seedling death under green house at 0.5 kg/ha at 25 degC measured after 4 weeks. The class given is functional, organism-based.
Data set [3] concerns Digitaria ciliaris. In words: Herbicidal activity against Digitaria ciliaris assessed as seedling death under green house at 0.5 kg/ha at 25 degC measured after 4 weeks. The class given is functional, organism-based.
Data set [4] has as its system Amaranthus viridis. Put plainly: Herbicidal activity against Amaranthus viridis assessed as seedling death under green house at 1 kg/ha at 25 degC measured after 4 weeks. It is filed as functional, organism-based.
For data set [5], the system named is Persicaria lapathifolia. Put plainly: Herbicidal activity against Persicaria lapathifolia assessed as seedling death under green house at 1 kg/ha at 25 degC measured after 4 weeks. It is filed as functional, organism-based.
Data set [6] deals with Digitaria ciliaris. In words: Herbicidal activity against Digitaria ciliaris assessed as seedling death under green house at 1 kg/ha at 25 degC measured after 4 weeks. The class given is functional, organism-based.
Data set [7] relates to Echinochloa crus-galli. Put plainly: Herbicidal activity against Echinochloa crus-galli (barnyard grass) assessed as seedling death under green house at 1 kg/ha at 25 degC measured after 4 weeks. It is filed as functional, organism-based.
Data set [8] relates to Amaranthus viridis. In words: Herbicidal activity against Amaranthus viridis assessed as seedling death under green house at 0.25 kg/ha at 25 degC measured after 4 weeks. It is filed as functional, organism-based.
Data set [9] has as its system Digitaria ciliaris. Put plainly: Herbicidal activity against Digitaria ciliaris assessed as seedling death under green house at 0.25 kg/ha at 25 degC measured after 4 weeks. The class given is functional, organism-based.
The test system of data set [10] is Echinochloa crus-galli. Put plainly: Herbicidal activity against Echinochloa crus-galli (barnyard grass) assessed as seedling death under green house at 0.25 kg/ha at 25 degC measured after 4 weeks. The class given is functional, organism-based.
For data set [11], the system named is Gossypium hirsutum. In words: Toxicity in Gossypium hirsutum cv. Hakushuu (cotton) assessed as seedling death under green house at 0.25 kg/ha at 25 degC measured after 4 weeks by crop selectivity assay. The note with it: in vivo, 672 h. The class given is organism-based.
The subject of data set [12] is Amaranthus viridis. In words: Herbicidal activity against Amaranthus viridis assessed as seedling death under green house at 4 kg/ha at 25 degC measured after 4 weeks. It is filed as functional, organism-based.
For data set [13], the system named is Persicaria lapathifolia. In words: Herbicidal activity against Persicaria lapathifolia assessed as seedling death under green house at 4 kg/ha at 25 degC measured after 4 weeks. It is filed as functional, organism-based.
The subject of data set [14] is Digitaria ciliaris. Put plainly: Herbicidal activity against Digitaria ciliaris assessed as seedling death under green house at 4 kg/ha at 25 degC measured after 4 weeks. It is filed as functional, organism-based.
In data set [15] the test system is Echinochloa crus-galli. Put plainly: Herbicidal activity against Echinochloa crus-galli (barnyard grass) assessed as seedling death under green house at 4 kg/ha at 25 degC measured after 4 weeks. The class given is functional, organism-based.
The subject of data set [16] is Glycine max. Put plainly: Toxicity in Glycine max cv. Tamahomare (soybean) assessed as seedling death under green house at 0.25 kg/ha at 25 degC measured after 4 weeks by crop selectivity assay. The class given is organism-based. The note with it: in vivo, 672 h.
The subject of data set [17] is Triticum aestivum. In words: Toxicity in Triticum aestivum cv. Nohrin-61 (wheat) assessed as seedling death under green house at 0.25 kg/ha at 25 degC measured after 4 weeks by crop selectivity assay. It is filed as organism-based. The note with it: in vivo, 672 h.
Data set [18] concerns Echinochloa crus-galli. Put plainly: Herbicidal activity against Echinochloa crus-galli (barnyard grass) assessed as seedling death under green house at 2 kg/ha at 25 degC measured after 4 weeks. The class given is functional, organism-based.
Data set [19] has as its system Digitaria ciliaris. Put plainly: Herbicidal activity against Digitaria ciliaris assessed as seedling death under green house at 2 kg/ha at 25 degC measured after 4 weeks. It is filed as functional, organism-based.
For data set [20], the system named is Persicaria lapathifolia. Put plainly: Herbicidal activity against Persicaria lapathifolia assessed as seedling death under green house at 0.5 kg/ha at 25 degC measured after 4 weeks. The class given is functional, organism-based.
In data set [21] the test system is Persicaria lapathifolia. Put plainly: Herbicidal activity against Persicaria lapathifolia assessed as seedling death under green house at 0.25 kg/ha at 25 degC measured after 4 weeks. It is filed as functional, organism-based.
For data set [22], the system named is Gossypium hirsutum. Put plainly: Toxicity in Gossypium hirsutum cv. Hakushuu (cotton) assessed as seedling death under green house at 0.5 kg/ha at 25 degC measured after 4 weeks by crop selectivity assay. It is filed as organism-based. Particulars: in vivo, 672 h.
Data set [23] has as its system Triticum aestivum. Put plainly: Toxicity in Triticum aestivum cv. Nohrin-61 (wheat) assessed as seedling death under green house at 0.5 kg/ha at 25 degC measured after 4 weeks by crop selectivity assay. The class given is organism-based. The note with it: in vivo, 672 h.
Data set [24] has as its system Glycine max. Put plainly: Toxicity in Glycine max cv. Tamahomare (soybean) assessed as seedling death under green house at 0.5 kg/ha at 25 degC measured after 4 weeks by crop selectivity assay. The class given is organism-based. Particulars: in vivo, 672 h.
Data set [25] relates to Gossypium hirsutum. Put plainly: Toxicity in Gossypium hirsutum cv. Hakushuu (cotton) assessed as seedling death under green house at 1 kg/ha at 25 degC measured after 4 weeks by crop selectivity assay. The note with it: in vivo, 672 h. The class given is organism-based.
The subject of data set [26] is Glycine max. Put plainly: Toxicity in Glycine max cv. Tamahomare (soybean) assessed as seedling death under green house at 1 kg/ha at 25 degC measured after 4 weeks by crop selectivity assay. The class given is organism-based. The note with it: in vivo, 672 h.
Data set [27] has as its system Triticum aestivum. Put plainly: Toxicity in Triticum aestivum cv. Nohrin-61 (wheat) assessed as seedling death under green house at 1 kg/ha at 25 degC measured after 4 weeks by crop selectivity assay. It is filed as organism-based. Particulars: in vivo, 672 h.

Calls of active or inactive are those of the source. The calls are words filed in the database; no cut-off is given here.

Turning to `Cc1c(C(F)(F)F)noc1OCC(=O)N(C)c1ccccc1Cl`, the result in data set [1], in data set [2], in data set [3], in [4], in data set [5] and in [6] was Active. The outcome in data set [7], in data set [8], in data set [9] and in data set [10] was Active. Further, in [11], the Activity entry is recorded as “Non-toxic”.

For `CN(C(=O)COc1cc(-c2ccccc2)no1)c1ccccc1`, the result in data set [12], in [13], in [14] and in data set [15] was inactive.

For `Cc1c(C(F)(F)F)noc1OCC(=O)N(C)c1ccccc1-c1ccccc1`, the outcome in data set [12], in data set [13], in data set [14] and in data set [15] was inactive.

Regarding `Cc1c(C(F)(F)F)noc1OCC(=O)N(C)c1cccc(F)c1`, the result in data set [1], in data set [2], in data set [3], in data set [4], in data set [5] and in data set [6] was Active. Further, the outcome in data set [7], in [8], in data set [9] and in data set [10] was Active. The Activity result in data set [16], in [17] and in data set [11] was “Non-toxic” throughout.

For `CCCCCCN(C)C(=O)COc1onc(C(F)(F)F)c1C`, the outcome in data set [18] and in [19] was Active.

Turning to `CN(C(=O)COc1nnc(C(F)(F)F)s1)c1ccccc1`, the outcome in data set [1], in [20], in data set [8], in [9] and in data set [21] was inactive. Also, the Activity result in [16], in data set [17], in [22], in data set [23], in [24] and in data set [11] was “Non-toxic” throughout.

Consider `CN(C(=O)COc1cc(C(F)(F)F)no1)c1ccccc1`, for which the result in [3], in data set [6] and in [7] was Active. Besides, the Activity result in [25], in data set [22], in [23] and in data set [24] was “Non-toxic” throughout.

As for `CN(C(=O)COc1nc2ccccc2s1)c1ccccc1` [MEFENACET], the outcome in data set [20], in data set [8] and in [21] was inactive. Further, the Activity result in data set [16], in [17], in data set [22], in data set [23], in data set [24] and in [11] was “Non-toxic” each time.

Turning to `Cc1c(C(F)(F)F)noc1OCC(=O)N(C)c1ccccc1`, the outcome in data set [2], in data set [3], in data set [4], in [6] and in data set [7] was Active. Also, the Activity result in data set [26], in [27], in data set [22], in data set [23] and in data set [24] was “Non-toxic” in each case.

Consider `CN(C(=O)COc1onc(C(F)(F)F)c1-c1ccccc1)c1ccccc1`, for which the result in data set [2], in [3], in data set [6] and in [7] was Active. The Activity entry in [25], in [26], in data set [27], in [22], in data set [23] and in data set [24] was “Non-toxic” each time.

In the case of `Cc1c(C(F)(F)F)noc1OCC(=O)N(C)c1ccccc1Br`, the result in [1], in data set [2], in data set [3], in [4], in [5] and in data set [6] was Active. Moreover, the outcome in data set [7], in data set [9] and in [10] was Active. For the same molecule, the Activity result in data set [16], in data set [17] and in data set [11] was “Non-toxic” throughout.

Take `Cc1c(C(F)(F)F)noc1OCC(=O)N(C)C(C)(C)C`: the outcome in [12], in data set [13], in data set [14] and in data set [15] was inactive.

Take `Cc1c(C(F)(F)F)noc1OCC(=O)Nc1ccccc1`: the result in data set [12], in [13], in [14] and in data set [15] was inactive.

`Cc1cccc(C)c1N(C)C(=O)COc1onc(C(F)(F)F)c1C`: the result in data set [12], in data set [13], in data set [14] and in data set [15] was inactive.
